Results from patent publication US12583820B2, “Broad spectrum antivirals against coronavirus” (priority 2020, dated 2026).
Like-named read-outs stand apart in the source and are kept apart here.

Key:
3CLpro of MERS-CoV = 3CLpro of MERS-CoV (Middle East respiratory syndrome-related coronavirus, UniProt K9N7C7); test: biochemical; assay type: biochemical
[1] = Nonspecific cytotoxic effects (CC50), CytoTox 96 kit
3CLpro of SARS-CoV-2 = target: T1, 3CLpro of SARS-CoV-2 (Severe acute respiratory syndrome coronavirus 2, UniProt P0DTD1); test: biochemical; assay type: biochemical
T1 construct: The codon-optimized cDNA of full length of 3CLpro of SARS-CoV-2; 6xHis (N); made in house; pET-28a(+) vector (points to E. coli, my inference)

3CLpro of MERS-CoV, sequence (K9N7C7 3248-3553 limits assumed): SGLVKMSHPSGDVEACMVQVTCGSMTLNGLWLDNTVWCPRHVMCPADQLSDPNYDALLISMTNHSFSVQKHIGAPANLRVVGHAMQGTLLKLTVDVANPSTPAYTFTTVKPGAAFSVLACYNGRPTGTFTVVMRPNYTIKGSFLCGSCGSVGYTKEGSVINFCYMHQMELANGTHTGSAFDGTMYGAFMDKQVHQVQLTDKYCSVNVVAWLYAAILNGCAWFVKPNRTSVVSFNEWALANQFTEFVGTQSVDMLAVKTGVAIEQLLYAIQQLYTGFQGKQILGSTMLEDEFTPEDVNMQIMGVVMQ

Structure (SMILES)	IC50 (3CLpro of MERS-CoV; read-out: IC50)	CC50 at 72 h [1]	IC50 (3CLpro of MERS-CoV)	IC50 (3CLpro of SARS-CoV-2)	fold more potent than the corresponding 24b/c aldehyde and bisulfite adducts (3CLpro of SARS-CoV-2)	IC50 (3CLpro of SARS-CoV-2; read-out: IC50 against 3CLpro)
CCCC(OC(=O)N[C@@H](CC(C)C)C(=O)N[C@@H](C[C@@H]1CCNC1=O)C(O)S(=O)(=O)O)c1ccccc1 (mixture of isomers) [Compound 23c, Sodium(2S)-1-hydroxy-2-((2S)-4-methyl-2-(((1-phenylbutoxy)carbonyl)amino)pentanamido)-3-((S)-2-oxopyrrolidin-3-yl)propane-1-sulfonate]	130 nM	> 100000 nM	–	–	–	–
O=C(N[C@@H](CC1CCCCC1)C(=O)N[C@@H](C[C@@H]1CCNC1=O)C(O)S(=O)(=O)O)OC1CCC(F)(F)CC1 (stereo partly drawn) [Compound 7i (Scheme 1), sodium (2S)-2-((S)-3-cyclohexyl-2-((((4,4-difluorocyclohexyl)oxy)carbonyl)amino)propan-amido)-1-hydroxy-3-((S)-2-oxopyrrolidin-3-yl)propane-1-sulfonate]	–	> 100000 nM	> 50000 nM	–	–	–
CCCCC1CCC(OC(=O)NC(CC(C)C)C(=O)NC(CC2CCNC2=O)C(O)S(=O)(=O)O)CC1 [Compound 4c, Sodium (2S)-2-((S)-2-(((((1s,4S)-4-butylcyclohexyl)oxy)carbonyl)amino)-4-methylpentan amido)-1-hydroxy-3-((S)-2-oxopyrrolidin-3-yl)propane-1-sulfonate]	–	> 100000 nM	150 nM	–	–	–
CC(C)C[C@H](NC(=O)OC(Cc1ccccc1)c1ccccc1)C(=O)N[C@@H](C[C@@H]1CCNC1=O)C(O)S(=O)(=O)O (stereo partly drawn) [Compound 24c, Sodium (2S)-2-((2S)-2-(((1,2-diphenylethoxy)carbonyl)amino)-4-methylpentanamido)-1-hydroxy-3-((S)-2-oxopyrrolidin-3-yl)propane-1-sulfonate]	–	> 100000 nM	–	3500 nM	–	–
CC(C)C[C@H](NC(=O)OC(c1ccccc1)C1CCC(F)(F)CC1)C(=O)N[C@H](C=O)C[C@@H]1CCNC1=O (stereo partly drawn) [Compound 15b, (4,4-Difluorocyclohexyl)(phenyl)methyl ((S)-4-methyl-1-oxo-1-(((S)-1-oxo-3-((S)-2-oxopyrrolidin-3-yl)propan-2-yl)amino)pentan-2-yl)carbamate]	–	> 100000 nM	–	100 nM	–	–
CCCC(OC(=O)N[C@@H](CC(C)C)C(=O)N[C@H](C=O)C[C@@H]1CCNC1=O)c1ccccc1 (stereo partly drawn) [Compound 23b, 1-Phenylbutyl ((S)-4-methyl-1-oxo-1-(((S)-1-oxo-3-((S)-2-oxopyrrolidin-3-yl)propan-2-yl)amino)pentan-2-yl)carbamate]	–	> 100000 nM	–	–	27 fold	150 nM
CCCCC(OC(=O)N[C@@H](CC(C)C)C(=O)N[C@@H](C[C@@H]1CCNC1=O)C(O)S(=O)(=O)O)C1CCC(F)(F)CC1 (stereo partly drawn) [Compound 16c, Sodium (2S)-2-((2S)-2-((((1-(4,4-difluorocyclohexyl)pentyl)oxy)carbonyl)amino)-4-methylpentanamido)-1-hydroxy-3-((S)-2-oxopyrrolidin-3-yl)propane-1-sulfonate]	–	> 100000 nM	–	250 nM	–	–
CC(C)C[C@H](NC(=O)OC(c1ccccc1)C1CCC(F)(F)CC1)C(=O)N[C@@H](C[C@@H]1CCNC1=O)C(O)S(=O)(=O)O (stereo partly drawn) [Compound 15c, Sodium (2S)-2-((2S)-2-((((4,4-difluorocyclohexyl)(phenyl)methoxy)carbonyl)amino)-4-methylpentanamido)-1-hydroxy-3-((S)-2-oxopyrrolidin-3-yl)propane-1-sulfonate]	–	> 100000 nM	–	160 nM	–	–
CC(C)C[C@H](NC(=O)OC(Cc1ccccc1)C1CCC(F)(F)CC1)C(=O)N[C@H](C=O)C[C@@H]1CCNC1=O (stereo partly drawn) [Compound 14b, 1-(4,4-Difluorocyclohexyl)-2-phenylethyl ((S)-4-methyl-1-oxo-1-(((S)-1-oxo-3-((S)-2-oxopyrrolidin-3-yl)propan-2-yl)amino)pentan-2-yl)carbamate]	–	> 100000 nM	–	230 nM	–	–
